According to US7820703B2, “Lysophosphatidic acid receptor selective antagonists” (University of Virginia Patent Foundation, priority 2004, dated 2010):
Entries after “also recorded” stand apart in the source; their conditions may differ.

Experiments:
LPP1 (PAP2a) = target: T1, LPP1 (PAP2a) (Homo sapiens, UniProt O14494); assay: LPP inhibition, competition with [32P]LPA, LPP1; type: biochemical; details: competition with 50 nM [32P]LPA
T1 sequence (O14494 1-284): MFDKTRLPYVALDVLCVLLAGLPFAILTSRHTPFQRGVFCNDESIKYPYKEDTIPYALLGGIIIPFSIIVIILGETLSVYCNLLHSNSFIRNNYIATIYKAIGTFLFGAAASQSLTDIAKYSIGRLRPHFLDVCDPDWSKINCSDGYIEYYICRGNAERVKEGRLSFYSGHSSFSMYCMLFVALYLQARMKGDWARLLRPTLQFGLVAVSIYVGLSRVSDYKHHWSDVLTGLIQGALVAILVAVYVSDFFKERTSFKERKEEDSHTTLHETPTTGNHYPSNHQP
Experimental: (§1) NOHPP was also tested for activity at the three cloned LPPs. Although the phosphonate head group eliminates the possibility of NOHPP acting as a substrate, it is possible that the compound could be a competitive inhibitor.

human LPA3 [1] = target: T2, human LPA3 (Homo sapiens, UniProt Q9UBY5); assay: GTP[γ35S] binding assay, agonist activity at LPA3; type: biochemical; set-up: expressed in transfected cells; host or cells: HEK293T cells (membranes)
T2 sequence (Q9UBY5 1-353): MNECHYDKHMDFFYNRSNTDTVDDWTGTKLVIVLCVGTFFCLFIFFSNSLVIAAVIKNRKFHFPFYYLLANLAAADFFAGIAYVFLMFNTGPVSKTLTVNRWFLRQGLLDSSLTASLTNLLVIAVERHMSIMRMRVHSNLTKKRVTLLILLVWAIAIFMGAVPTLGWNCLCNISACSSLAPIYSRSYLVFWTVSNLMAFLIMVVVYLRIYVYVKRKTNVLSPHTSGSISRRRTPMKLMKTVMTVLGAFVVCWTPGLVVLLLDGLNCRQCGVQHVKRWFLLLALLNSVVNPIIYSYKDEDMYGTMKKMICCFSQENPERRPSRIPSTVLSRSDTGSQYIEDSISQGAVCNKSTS
Experimental: (§2) The appropriate receptor plasmid DNA (encoding mouse LPA1, human LPA2 or human LPA3) was mixed with equal amounts of expression plasmids (pcDNA3) encoding a mutated (C351F) rat Gi2a, cow β1, and γ2 proteins and these DNAs were used to transfect monolayers of HEK293T cells (where ‘T’ indicates expression of the SV-40 virus large T antigen) using the calcium phosphate precipitate method. After about 60 hours, cells were harvested, membranes were prepared, aliquoted and stored at −70° C. until use.
(§3) The GTP[35 γS] assay was performed as described by us previously. Membranes containing 5 ug of protein were incubated in 0.1 ml GTP-binding buffer (in mM: HEPES 50, NaCl 100, MgCl2 10, pH7.5) containing […], […], 0.1 nM GTP[35 γS] (1200 Ci/mmol), and indicated lipid(s) for 30 minutes at 30° C. Samples were analyzed for membrane-bound radionuclide using a Brandel Cell Harvester (Gaithersburg, Md.). The C351F mutation renders the Gi2α protein resistant to inactivation by pertussis toxin or the alkylating agent N-ethylmaleimide; however in practice background binding was sufficiently low to obviate these maneuvers.
(§4) This assay isolates each recombinant LPA receptor and allows analysis of all three receptors using the same system.
(§5) Membranes prepared from these cells are used to measure GTPγ[^35S] binding as a function of test compound concentration. The resulting dose-response curves provide relative potency (EC50) and efficacy (Emax) for the test compounds.

human LPA2 [2] = target: T3, human LPA2 (Homo sapiens, UniProt Q9HBW0); assay: GTP[γ35S] binding assay, agonist activity at LPA2; type: biochemical; set-up: expressed in transfected cells; host or cells: HEK293T cells (membranes)
Experimental: as §2
(§6) The GTP[35 γS] assay was performed as described by us previously. Membranes containing 5 ug of protein were incubated in 0.1 ml GTP-binding buffer (in mM: HEPES 50, NaCl 100, MgCl2 10, pH7.5) containing […], […], 0.1 nM GTP[35 γS] (1200 Ci/mmol), and indicated lipid(s) for 30 minutes at 30° C. Samples were analyzed for membrane-bound radionuclide using a Brandel Cell Harvester (Gaithersburg, Md.).
as §5

LPP3 (PAP2b) = target: T4, LPP3 (PAP2b) (Homo sapiens, UniProt O14495); assay: LPP inhibition, competition with [32P]LPA, LPP3; type: biochemical; details: competition with 50 nM [32P]LPA
T4 sequence (O14495 1-311): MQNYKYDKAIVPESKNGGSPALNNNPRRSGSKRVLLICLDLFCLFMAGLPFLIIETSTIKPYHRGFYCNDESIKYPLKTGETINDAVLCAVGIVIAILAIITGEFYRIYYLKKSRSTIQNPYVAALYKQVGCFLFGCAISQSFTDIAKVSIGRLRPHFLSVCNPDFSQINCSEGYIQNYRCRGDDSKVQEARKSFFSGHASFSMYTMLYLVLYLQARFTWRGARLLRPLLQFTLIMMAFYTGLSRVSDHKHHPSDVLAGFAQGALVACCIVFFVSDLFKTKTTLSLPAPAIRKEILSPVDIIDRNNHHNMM
Experimental: as §1

mouse LPA1 [3] = target: T5, mouse LPA1 (Mus musculus, UniProt P61793); assay: GTP[γ35S] binding assay, agonist activity at LPA1; type: biochemical; set-up: expressed in transfected cells; host or cells: HEK293T cells (membranes)
Experimental: as §2, §3, §4, §5

human LPA3 [4] = target: T2, human LPA3; assay: chloride conductance in Xenopus oocytes injected with human LPA3 mRNA; type: cell-based; set-up: expressed in transfected cells; host or cells: Xenopus laevis oocytes injected with mRNA; details: 10 μM applied to the oocyte surface
Experimental: (§7) wls-b8L and the other phosphonates were also tested also for activity in three whole cell assays. […] Finally, the activity of wls-b8L in activating a chloride conductance in Xenopus laevis ooctyes was measured.

human LPA2 [5] = target: T3, human LPA2; assay: chloride conductance in Xenopus oocytes injected with human LPA2 mRNA; type: cell-based; set-up: expressed in transfected cells; host or cells: Xenopus laevis oocytes injected with mRNA; details: 10 μM applied to the oocyte surface
Experimental: as §7

mouse LPA1 [6] = target: T5, mouse LPA1; assay: cAMP accumulation in RH7777 cells expressing LPA1; type: cell-based; set-up: expressed in transfected cells; details: concentration of 1 μM
Experimental: (§8) Assays for cAMP accumulation were conducted on populations of 5×10^5 cells stimulated with […] in the presence of the phosphodiesterase inhibitor isomethylbutylxanthine (IBMX) for 15 minutes at 30° C. cAMP was measured by automated radioimmunoassay.
Rat hepatoma RH7777 cell monolayers were transfected with the mLPA1 plasmid DNA using the calcium phosphate precipitate method and clonal populations expressing the neomycin phosphotransferase gene were selected by addition of geneticin (G418) to the culture media. The RH7777 cells were grown in monolayers at 37° C. in a 5% CO02/95% air atmosphere in growth media consisting of: 90% MEM, 10% fetal bovine serum, 2 mM glutamine and 1 mM sodium pyruvate.
as §7

human platelets = assay: aggregation of human platelets; type: cell-based; details: concentrations up to 10 micromolar
Text: wls-b8L is expected to be resistant to hydrolysis by phosphohydrolases by virtue of its containing a phosphonate, rather than a phosphate, group. Furthermore this chemical entity (wls-b8L) has two additional desirable properties.

Xenopus laevis ooctyes = assay: chloride conductance in Xenopus laevis oocytes, endogenous receptor; type: cell-based
Experimental: as §7

LPA1 receptor = target: T6, LPA1 receptor (Mus musculus, UniProt P61793); assay: antagonism of LPA-evoked GTP[γ35S] binding at LPA1; type: biochemical; details: GTP[γ35S] binding
T6 construct: expressed in transfected cells; host or cells: HEK293T cells (membranes)
Experimental: as §2, §6
The X-intercept of the linear transformation is equal to the inverse log of the KI.
All compounds were characterized by ^1H and ^13C NMR, mass spectroscopy and, in certain cases, elemental analysis. A GTP[γ35S] binding assay was adapted to assess in vitro activity.
All compounds were characterized by ^1H and ^13C NMR, mass spectroscopy and, in most cases, C, H, N analyses. A membrane-based GTP[γ^35S] binding assay was adapted to assess in vitro activity at the LPA1 and LPA3 receptors.

LPA receptors = assay: whole cell assays of calcium mobilization or inhibition of cAMP accumulation, agonist activity; type: cell-based
Experimental: as §8
A FLIPR™ (Molecular Devices, Inc.) was used to measure intracellular calcium in A431 and HEK293T cells. A431 cells were seeded (˜50,000 cells/well) in 96-well clear bottom black microplates (Corning Costar Corp., Cambridge, Mass.) and left overnight in CO2 incubator at 37° C. HEK293T cells were treated likewise, but seeded onto poly D-lysine coated microplates (Becton Dickinson, Franklin Lakes, N.J.). A431 cells were dye-loaded with 4 μM Fluo-3 AM ester (Molecular Probes Inc., Eugene, Oreg.) in a loading buffer (1×HBSS buffer, pH 7.4, containing 20 mM HEPES, 0.1% BSA, and 2.5 mM probenecid) for 1 hour at 37° C. Cells were then washed four times with the loading buffer and exposed in the FLIPR™ to sets of compounds. HEK293T cells were loaded with 2 μM Fluo-4 AM ester (Molecular Probes Inc., Eugene, Oreg.) in the same loading buffer without probenecid for 30 minutes and washed four times before being exposed to compounds in the FLIPR™. […]
The same activity was determined with human LPA1 using a recombinant baculovirus-infected insect Sf9 cell membrane preparation.

T5 sequence (P61793 whole entry): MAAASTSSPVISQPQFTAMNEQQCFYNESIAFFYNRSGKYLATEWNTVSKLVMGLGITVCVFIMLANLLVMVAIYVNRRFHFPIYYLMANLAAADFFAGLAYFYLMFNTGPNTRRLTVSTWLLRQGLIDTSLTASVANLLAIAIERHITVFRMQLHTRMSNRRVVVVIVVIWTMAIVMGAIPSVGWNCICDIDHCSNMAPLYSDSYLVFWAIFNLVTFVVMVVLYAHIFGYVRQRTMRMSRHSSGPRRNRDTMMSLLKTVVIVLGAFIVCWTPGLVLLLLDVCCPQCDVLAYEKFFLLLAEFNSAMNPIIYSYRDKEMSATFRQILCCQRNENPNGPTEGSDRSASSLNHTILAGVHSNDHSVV
T3 sequence (Q9HBW0 whole entry): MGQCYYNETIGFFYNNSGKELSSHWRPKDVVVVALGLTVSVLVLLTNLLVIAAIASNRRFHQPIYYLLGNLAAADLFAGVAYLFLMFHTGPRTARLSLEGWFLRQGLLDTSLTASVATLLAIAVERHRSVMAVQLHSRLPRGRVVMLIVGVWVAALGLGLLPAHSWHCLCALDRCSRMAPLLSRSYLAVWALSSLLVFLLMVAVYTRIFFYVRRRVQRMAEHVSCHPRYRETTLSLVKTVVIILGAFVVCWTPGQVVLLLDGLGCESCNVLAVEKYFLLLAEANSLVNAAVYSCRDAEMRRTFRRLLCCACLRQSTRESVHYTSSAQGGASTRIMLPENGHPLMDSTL
T6 sequence (P61793 whole entry): as the sequence (P61793 whole entry) above

SMILES | inhibition of LPP1 (LPP1 (PAP2a)) | agonist activity at LPA3, in words (human LPA3 [1]) | agonist activity at LPA2, in words (human LPA2 [2]) | inhibition of LPP3 (LPP3 (PAP2b)) | inhibition of LPP3 (LPP3 (PAP2b); listed as VPC12031) | agonist activity at LPA1, in words (mouse LPA1 [3]) | chloride conductance response, oocytes injected with human LPA3 mRNA (human LPA3 [4]) | chloride conductance response, oocytes injected with human LPA2 mRNA (human LPA2 [5]) | inhibition of cAMP accumulation, efficacy (mouse LPA1 [6]) | aggregation of human platelets (human platelets) | activating a chloride conductance, endogenous receptor (Xenopus laevis ooctyes) | antagonist activity at LPA1, in words (LPA1 receptor) | agonist activity in whole cell assays (LPA receptors)
CCCCCCCC/C=C\CCCCCCCC(=O)NCCC(O)P(=O)(O)O (racemic) [NOHPP, (9Z)-N-(rac-3-hydroxy-3-phosphonopropyl)octadec-9-enamide] | to a lesser extent | little activity; also recorded: distinctly less potent and far less efficacious than LPA | fully efficacious; also recorded: as efficacious as, but somewhat less potent than, LPA | inhibited | markedly better at the PAP2b (LPP3) than PAP2a (LPP1) | fully efficacious; also recorded: as efficacious as, but somewhat less potent than, LPA |  |  |  |  |  |  | 
CCCCCCCC/C=C\CCCCCCCC(=O)NCCCP(=O)(O)O [wls-b8L, (9Z)-N-(3-phosphonopropyl)octadec-9-enamide] |  |  |  |  |  | more potent and efficacious at LPA1 than at either LPA2 or LPA3 | very modest response | very modest response | fully efficacious | does not elicit aggregation | does not evoke this response |  | 
CCCCCCCC/C=C\CCCCCCCC(=O)N[C@@H](COP(=O)(O)O)Cc1ccccc1 [VPC12084] |  |  |  |  |  |  |  |  |  |  |  | did block LPA activity | appreciable agonist activity
